Test results from US20240158446A1, “CYCLIC COMPOUND HAVING SELECTIVE INHIBITORY ACTION ON KRAS OVER HRAS AND NRAS” (CHUGAI SEIYAKU KABUSHIKI KAISHA, priority 2021, published 2024).
Like-named read-outs stand apart in the source and are kept apart here. Where a SMILES comes first, the peptide text is derived from it. Bridges are numbered along the chain shown (N, C = ends). [ ]: non-standard residue; d: D form. The star is where a group is joined. hPhe(3-Cl-4-CF3) = N[C@@H](CCc1ccc(C(F)(F)F)c(Cl)c1)C(=O)O; NPrPhe(4-CF3) = CCCN[C@@H](Cc1ccc(C(F)(F)F)cc1)C(=O)O; NMeGly(cPent) = CN[C@H](C(=O)O)C1CCCC1; Pro(4,4-F2) = O=C(O)[C@@H]1CC(F)(F)CN1; Pro(4S-Me) = C[C@@H]1CN[C@H](C(=O)O)C1; Hyp = O=C(O)[C@@H]1C[C@@H](O)CN1; NMeD = CN[C@@H](CC(=O)O)C(=O)O; NMeL = CN[C@@H](CC(C)C)C(=O)O; Oxazolidin(3-yl) = C1CN(*)CO1; Morpholide = C1CN(*)CCO1; NMeA = CN[C@@H](C)C(=O)O; Ac5c = NC1(C(=O)O)CCCC1; Aze = O=C(O)[C@@H]1CCN1; Ac4c = NC1(C(=O)O)CCC1; NEtG = CCNCC(=O)O; Sar = CNCC(=O)O

Columns and labels:
[1] = target: GDP-bound NRAS wild-type protein (Homo sapiens, UniProt P01111); assay: Binding to NRAS by surface plasmon resonance (SPR), Single Cycle Kinetics; conditions: for NRAS/KRAS (ratio of KD value with respect to NRAS to KD value with respect to KRAS) / NRAS/KRAS (ratio of KD value for NRAS to KD value for KRAS): SPR, GDP-bound NRAS wild-type protein vs GDP-bound KRAS wild-type protein
[2] = target: GDP-bound KRAS wild-type protein (Homo sapiens, UniProt P01116); assay: Binding to KRAS by surface plasmon resonance (SPR), Single Cycle Kinetics; conditions: GDP-bound KRAS wild-type protein, read-out: KRAS KD
[3] = target: GDP-bound HRAS wild-type protein (Homo sapiens, UniProt P01112); assay: Binding to HRAS by surface plasmon resonance (SPR), Single Cycle Kinetics; conditions: for HRAS/KRAS (ratio of KD value with respect to HRAS to KD value with respect to KRAS) / HRAS/KRAS (ratio of KD value for HRAS to KD value for KRAS): SPR, GDP-bound HRAS wild-type protein vs GDP-bound KRAS wild-type protein
[4] = SPR Single Cycle Kinetics, 1:1 binding model
[5] = SPR, Single Cycle Kinetics, 1:1 binding model

GDP-bound KRAS wild-type protein, sequence (P01116 whole entry): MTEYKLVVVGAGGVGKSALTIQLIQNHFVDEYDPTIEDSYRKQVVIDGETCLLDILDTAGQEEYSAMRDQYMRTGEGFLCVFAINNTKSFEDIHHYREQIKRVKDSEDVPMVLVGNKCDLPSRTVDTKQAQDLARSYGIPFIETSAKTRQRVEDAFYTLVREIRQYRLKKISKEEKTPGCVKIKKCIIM
GDP-bound NRAS wild-type protein, sequence (P01111 whole entry): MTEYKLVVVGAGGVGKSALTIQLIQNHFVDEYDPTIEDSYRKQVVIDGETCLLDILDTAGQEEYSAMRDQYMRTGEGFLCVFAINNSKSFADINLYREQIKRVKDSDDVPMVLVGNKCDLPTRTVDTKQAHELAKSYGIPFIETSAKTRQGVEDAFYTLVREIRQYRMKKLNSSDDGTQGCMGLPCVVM
GDP-bound HRAS wild-type protein, sequence (P01112 whole entry): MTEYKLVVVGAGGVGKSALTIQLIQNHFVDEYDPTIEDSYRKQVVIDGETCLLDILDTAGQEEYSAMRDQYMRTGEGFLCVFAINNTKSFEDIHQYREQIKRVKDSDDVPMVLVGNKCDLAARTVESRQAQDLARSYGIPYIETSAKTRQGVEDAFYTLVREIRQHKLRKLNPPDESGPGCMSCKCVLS

Row | Compound | Kd [2, 4] | NRAS/KRAS (ratio of KD value for NRAS to KD value for KRAS) [1] | HRAS/KRAS (ratio of KD value for HRAS to KD value for KRAS) [3] | also measured
1 | CC[C@H](C)[C@@H]1NC(=O)[C@H](CC(C)C)N(C)C(=O)C[C@@H](C(=O)N2CCOCC2)N(C)C(=O)[C@H](C2CCC2)N(C)C(=O)C2(CCCC2)NC(=O)[C@@H]2CCCN2C(=O)[C@H](CCc2cc(F)c(C(F)(F)F)c(F)c2)NC(=O)CN(C)C(=O)[C@H](Cc2ccc(C(F)(F)F)cc2)N2CCCC[C@@H](C2=O)N(C)C(=O)CN(C)C1=O [PP0566] | 290 pM | – | – | NRAS/KRAS (ratio of KD value with respect to NRAS to KD value with respect to KRAS) [1]: B (a compound having 3 or more and less than 10 is denoted as B); HRAS/KRAS (ratio of KD value with respect to HRAS to KD value with respect to KRAS) [3]: B (a compound having 3 or more and less than 10 is denoted as B)
2 | CCCN1C(=O)[C@@H]2CCN2C(=O)CN(C)C(=O)[C@H]([C@@H](C)CC)NC(=O)[C@H](CC(C)C)N(C)C(=O)C[C@@H](C(=O)N2CCOCC2)N(C)C(=O)[C@H](C2CCCC2)N(C)C(=O)C2(CCCC2)NC(=O)[C@@H]2C[C@H](C)CN2C(=O)[C@H](CCc2ccc(C(F)(F)F)c(Cl)c2)NC(=O)CN(C)C(=O)[C@@H]1Cc1ccc(C(F)(F)F)cc1 [PP0457] ([NMeL]I[Sar][Aze][NPrPhe(4-CF3)][Sar][hPhe(3-Cl-4-CF3)][Pro(4S-Me)][Ac5c][NMeGly(cPent)][NMeD]-Morpholide; lactam N-11) | 83 pM | – | – | NRAS/KRAS (ratio of KD value with respect to NRAS to KD value with respect to KRAS) [1]: C (A compound having a KD ratio of 0.1 or more and less than 3 is denoted as C); HRAS/KRAS (ratio of KD value with respect to HRAS to KD value with respect to KRAS) [3]: B (a compound having 3 or more and less than 10 is denoted as B)
3 | CC[C@H](C)[C@@H]1NC(=O)[C@H](CC2CCCC2)N(C)C(=O)C[C@@H](C(=O)N(C)C)N(C)C(=O)[C@@H](C2CCCC2)N(C)C(=O)C2(CCC2)NC(=O)[C@@H]2[C@@H](OCC(F)F)CCN2C(=O)[C@@H](CCc2cc(F)c(C(F)(F)F)c(F)c2)NC(=O)CN(C)C(=O)[C@@H](Cc2ccc(C)cc2)N2CC/C=C\C[C@H](C2=O)N(C)C(=O)CN(C)C1=O [PP1536] | – | – | – | NRAS/KRAS (ratio of KD value for NRAS to KD value for KRAS) ([1]; KD ratio class): A (a compound having 10 or more and less than 20 is denoted as A); Kd [2, 5]: 200 pM; HRAS/KRAS (ratio of KD value for HRAS to KD value for KRAS) ([3]; KD ratio class): B (a compound having 3 or more and less than 10 is denoted as B)
4 | CCCN1C(=O)[C@@H]2CCN2C(=O)[C@H](C)N(C)C(=O)[C@H]([C@@H](C)CC)NC(=O)[C@H](CC(C)C)N(C)C(=O)C[C@@H](C(=O)N(C)C)NC(=O)[C@H](C2CCCC2)N(C)C(=O)C2(CCC2)NC(=O)[C@@H]2CC(F)(F)CN2C(=O)[C@H](CCc2ccc(C(F)(F)F)c(Cl)c2)NC(=O)CN(C)C(=O)[C@@H]1Cc1ccc(C(F)(F)F)cc1 [PP0382] ([NMeL]I[NMeA][Aze][NPrPhe(4-CF3)][Sar][hPhe(3-Cl-4-CF3)][Pro(4,4-F2)][Ac4c][NMeGly(cPent)]D-NMe2; lactam N-11) | 350 pM | C (A compound having a KD ratio of 0.1 or more and less than 3 is denoted as C) | B (a compound having 3 or more and less than 10 is denoted as B) | –
5 | CCCN1C(=O)[C@@H]2CCN2C(=O)[C@H](C)N(C)C(=O)[C@H]([C@@H](C)CC)NC(=O)[C@H](CC(C)C)N(C)C(=O)C[C@@H](C(=O)N2CCOC2)N(C)C(=O)[C@H](C2CCCC2)N(C)C(=O)C2(CCCC2)NC(=O)[C@@H]2CCCN2C(=O)[C@H](CCc2ccc(C(F)(F)F)c(Cl)c2)NC(=O)CN(C)C(=O)[C@@H]1Cc1ccc(C(F)(F)F)cc1 [PP0183] ([NMeL]I[NMeA][Aze][NPrPhe(4-CF3)][Sar][hPhe(3-Cl-4-CF3)]P[Ac5c][NMeGly(cPent)][NMeD]-{Oxazolidin(3-yl)}; lactam N-11) | 170 pM | C (A compound having a KD ratio of 0.1 or more and less than 3 is denoted as C) | B (a compound having 3 or more and less than 10 is denoted as B) | –
6 | CC[C@H](C)[C@@H]1NC(=O)[C@H](CC(C)C)N(C)C(=O)C[C@@H](C(=O)N2CCOCC2)N(C)C(=O)[C@H](C2CCCC2)N(C)C(=O)C2(CCC2)NC(=O)[C@@H]2CCCN2C(=O)[C@H](CCc2cc(F)c(C(F)(F)F)c(F)c2)NC(=O)CN(C)C(=O)[C@H](Cc2ccc(C(F)(F)F)cc2)N2CCCC[C@@H](C2=O)N(C)C(=O)CN(C)C1=O [PP0560] | 50 pM | – | – | NRAS/KRAS (ratio of KD value with respect to NRAS to KD value with respect to KRAS) [1]: B (a compound having 3 or more and less than 10 is denoted as B); HRAS/KRAS (ratio of KD value with respect to HRAS to KD value with respect to KRAS) [3]: B (a compound having 3 or more and less than 10 is denoted as B)
7 | C#CC[C@H]1C(=O)N[C@@H]([C@@H](C)CC)C(=O)N(C)CC(=O)N(C)[C@H]2C/C=C\CCN(C2=O)[C@@H](Cc2ccc(C(F)(F)F)cc2)C(=O)N(C)CC(=O)N[C@@H](CCc2ccc(C(F)(F)F)c(OC)c2)C(=O)N2C[C@@H](C)C[C@H]2C(=O)NC2(CC(C)(C)C2)C(=O)N(C)[C@@H](C2CCCC2)C(=O)N(C)[C@H](C(=O)N(C)CC)CC(=O)N1C [PP2055] | – | A (a compound having 10 or more and less than 20 is denoted as A) | B (a compound having 3 or more and less than 10 is denoted as B) | Kd ([2]; SPR, Single Cycle Kinetics): 180 pM
8 | CCO[C@@H]1C[C@H]2C(=O)NC3(CC(C)(C)C3)C(=O)N(C)[C@@H](C(CC)CC)C(=O)N(C)[C@H](C(=O)N(C)C)CC(=O)N(C)[C@@H](CC3CCC3)C(=O)N[C@@H]([C@@H](C)CC)C(=O)N(C)CC(=O)N(C)[C@H]3C/C=C\CCN(C3=O)[C@@H](Cc3ccc(C)cc3)C(=O)N(C)CC(=O)N[C@@H](CCc3ccc(C(F)(F)F)c(Cl)c3)C(=O)N2C1 [PP2156] | – | AA (a compound having 20 or more is denoted as AA) | A (a compound having 10 or more and less than 20 is denoted as A) | Kd ([2]; SPR, Single Cycle Kinetics): 410 pM
9 | CCO[C@@H]1C[C@H]2C(=O)NC3(CC(C)(C)C3)C(=O)N(C)[C@@H](C3CCCC3)C(=O)N(C)[C@H](C(=O)N(C)C)CC(=O)N(C)[C@@H](CC)C(=O)N[C@@H]([C@@H](C)CC)C(=O)N(C)CC(=O)N(C)[C@H]3C/C=C\CCN(C3=O)[C@@H](Cc3ccc(C(F)(F)F)cc3)C(=O)N(C)CC(=O)N[C@@H](CCc3ccc(C(F)(F)F)c(OC)c3)C(=O)N2C1 [PP1559] | – | – | – | NRAS/KRAS (ratio of KD value for NRAS to KD value for KRAS) ([1]; KD ratio class): A (a compound having 10 or more and less than 20 is denoted as A); Kd [2, 5]: 47 pM; HRAS/KRAS (ratio of KD value for HRAS to KD value for KRAS) ([3]; KD ratio class): A (a compound having 10 or more and less than 20 is denoted as A)
10 | CCCN1C(=O)CN(C)C(=O)CNC(=O)[C@H]([C@@H](C)CC)NC(=O)[C@H](CC(C)C)N(C)C(=O)C[C@@H](C(=O)N(C)C)NC(=O)[C@H](C2CCCC2)N(C)C(=O)C2(CCCC2)NC(=O)[C@@H]2C[C@@H](OCC)CN2C(=O)[C@H](CCc2ccc(C(F)(F)F)c(Cl)c2)NC(=O)CN(C)C(=O)[C@@H]1Cc1ccc(C(F)(F)F)cc1 [PP0365] ([NMeL]IG[Sar][NPrPhe(4-CF3)][Sar][hPhe(3-Cl-4-CF3)][Hyp](Et)[Ac5c][NMeGly(cPent)]D-NMe2; lactam N-11) | 290 pM | B (a compound having 3 or more and less than 10 is denoted as B) | B (a compound having 3 or more and less than 10 is denoted as B) | –
11 | CCC(CC)[C@H]1C(=O)N(C)[C@H](C(=O)N(C)C)CC(=O)N(C)[C@@H](COC)C(=O)N[C@@H]([C@@H](C)CC)C(=O)N(C)CC(=O)N(C)[C@H]2C/C=C\CCN(C2=O)[C@@H](Cc2ccc(C(F)(F)F)cc2)C(=O)N(C)CC(=O)N[C@@H](CCc2cc(F)c(C(F)(F)F)c(F)c2)C(=O)N2CC3(CC3)C[C@H]2C(=O)NC2(CC(C)(C)C2)C(=O)N1C [PP2961] | 360 pM | – | – | NRAS/KRAS (ratio of KD value with respect to GDP-bound NRAS wild-type protein to KD value with respect to KRAS) ([1]; SPR KD ratio NRAS/KRAS, class symbols): AA (a compound having 20 or more is denoted as AA); HRAS/KRAS (ratio of KD value with respect to GDP-bound HRAS wild-type protein to KD value with respect to KRAS) ([3]; SPR KD ratio HRAS/KRAS, class symbols): A (a compound having 10 or more and less than 20 is denoted as A)
12 | CCO[C@@H]1C[C@H]2C(=O)NC3(CC(C)(C)C3)C(=O)N(C)[C@@H](C(CC)CC)C(=O)N(C)[C@H](C(=O)N(C)C)CC(=O)N(C)[C@@H](CC3CCC3)C(=O)N[C@@H]([C@@H](C)CC)C(=O)N(C)CC(=O)N(C)[C@H]3C/C=C\CCN(C3=O)[C@@H](Cc3ccc(C)cc3)C(=O)N(C)CC(=O)N[C@@H](CCc3cc(F)c(C(F)(F)F)c(F)c3)C(=O)N2C1 [PP2151] | – | A (a compound having 10 or more and less than 20 is denoted as A) | A (a compound having 10 or more and less than 20 is denoted as A) | Kd ([2]; SPR, Single Cycle Kinetics): 290 pM
13 | CCCN1C(=O)CN(C)C(=O)CN(CC)C(=O)[C@H]([C@@H](C)CC)NC(=O)[C@H](CC(C)C)N(C)C(=O)C[C@@H](C(=O)N(C)C)NC(=O)[C@H](C2CCCC2)N(C)C(=O)C2(CCC2)NC(=O)[C@@H]2CCCN2C(=O)[C@H](CCc2ccc(C(F)(F)F)c(Cl)c2)NC(=O)CN(C)C(=O)[C@@H]1Cc1ccc(C(F)(F)F)cc1 [PP0368] ([NMeL]I[NEtG][Sar][NPrPhe(4-CF3)][Sar][hPhe(3-Cl-4-CF3)]P[Ac4c][NMeGly(cPent)]D-NMe2; lactam N-11) | 1700 pM | B (a compound having 3 or more and less than 10 is denoted as B) | B (a compound having 3 or more and less than 10 is denoted as B) | –
